Results: ChEMBL document CHEMBL5335865, “Macrocyclic Oxindole Peptide Epoxyketones-A Comparative Study of Macrocyclic Inhibitors of the 20S Proteasome” (ACS Med Chem Lett, 2024)
The source made the active and inactive calls. No cut-off for these calls is given here.

Key:
[1] = target: T1, 20S proteasome (Homo sapiens) (UniProt P49721+P20618+P28074+P28062+P28065+P28072+P25786+P25787+P25788+P25789+P28066+P60900+O14818+Q8TAA3+P40306+A5LHX3+P49720+P28070+Q99436); experiment: Inhibition of human 20S proteasome PGPH-like activity using Cbz-LLE-AMC as a fluorogenic substrate at 130 uM measured every 20 seconds for 10 mins by fluorescence based assay; type: protein-complex assay
[2] = target: Calpain-2 catalytic subunit (Homo sapiens) (UniProt P17655); experiment: Inhibition of m-calpain (unknown origin) using Suc-LLVY-AMC as fluorogenic substrate at 130 uM measured every 20 seconds for 10 mins by fluorescence based assay
[3] = target: Chymotrypsin (UniProt Q99895+P17538+P40313+Q6GPI1); experiment: Inhibition of chymotrypsin (unknown origin) using Suc-LLVY-AMC as fluorogenic substrate at 130 uM measured every 20 seconds for 10 mins by fluorescence based assay; type: protein assay; settings: Homo sapiens
[4] = target: Cathepsin B (Homo sapiens) (UniProt P07858); experiment: Inhibition of human liver cathepsin B using Cbz-Arg-Arg-AMC as fluorogenic substrate at 130 uM measured every 20 seconds for 10 mins by fluorescence based assay
[5] = target: T1, 20S proteasome (Homo sapiens); experiment: Inhibition of human 20S proteasome trypsin-like activity using Ac-RLR-AMC as a fluorogenic substrate at 130 uM measured every 20 seconds for 10 mins by fluorescence based assay; type: protein-complex assay

Chain of Calpain-2 catalytic subunit (Homo sapiens) (P17655 whole entry, looked up): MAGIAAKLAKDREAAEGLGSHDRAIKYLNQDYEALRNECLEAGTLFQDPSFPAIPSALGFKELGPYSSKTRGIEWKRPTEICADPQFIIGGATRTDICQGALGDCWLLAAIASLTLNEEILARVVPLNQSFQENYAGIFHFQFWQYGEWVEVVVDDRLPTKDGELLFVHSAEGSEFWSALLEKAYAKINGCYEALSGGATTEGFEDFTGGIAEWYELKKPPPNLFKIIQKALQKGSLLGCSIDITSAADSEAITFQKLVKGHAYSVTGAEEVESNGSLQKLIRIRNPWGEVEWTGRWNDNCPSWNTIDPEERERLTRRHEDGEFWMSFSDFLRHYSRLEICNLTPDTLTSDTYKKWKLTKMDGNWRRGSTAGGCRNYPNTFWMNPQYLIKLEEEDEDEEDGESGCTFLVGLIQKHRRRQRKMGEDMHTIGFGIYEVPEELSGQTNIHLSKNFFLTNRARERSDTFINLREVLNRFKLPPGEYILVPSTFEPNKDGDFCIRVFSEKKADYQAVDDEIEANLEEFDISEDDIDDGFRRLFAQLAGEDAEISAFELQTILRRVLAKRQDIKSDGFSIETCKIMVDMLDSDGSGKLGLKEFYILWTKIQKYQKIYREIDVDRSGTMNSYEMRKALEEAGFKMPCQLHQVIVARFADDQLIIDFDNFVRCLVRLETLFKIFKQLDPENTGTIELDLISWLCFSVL
Chain of Chymotrypsin (P17538 whole entry, looked up): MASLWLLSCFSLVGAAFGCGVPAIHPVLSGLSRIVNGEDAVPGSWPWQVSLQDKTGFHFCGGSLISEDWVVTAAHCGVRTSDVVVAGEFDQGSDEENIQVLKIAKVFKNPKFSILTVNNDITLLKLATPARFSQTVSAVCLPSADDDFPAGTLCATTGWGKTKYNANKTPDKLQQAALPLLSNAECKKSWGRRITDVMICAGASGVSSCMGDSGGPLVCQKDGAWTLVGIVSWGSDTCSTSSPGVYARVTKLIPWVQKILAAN
Chain of Chymotrypsin (P40313 whole entry, looked up): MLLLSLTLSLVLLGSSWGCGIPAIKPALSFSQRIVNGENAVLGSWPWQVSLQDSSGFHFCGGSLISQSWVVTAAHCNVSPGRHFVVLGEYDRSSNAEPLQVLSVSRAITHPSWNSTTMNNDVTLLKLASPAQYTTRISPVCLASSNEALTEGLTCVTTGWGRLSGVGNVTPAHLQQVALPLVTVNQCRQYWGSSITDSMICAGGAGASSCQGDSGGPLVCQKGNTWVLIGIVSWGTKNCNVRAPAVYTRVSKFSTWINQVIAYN
Chain of Chymotrypsin (Q6GPI1 whole entry, looked up): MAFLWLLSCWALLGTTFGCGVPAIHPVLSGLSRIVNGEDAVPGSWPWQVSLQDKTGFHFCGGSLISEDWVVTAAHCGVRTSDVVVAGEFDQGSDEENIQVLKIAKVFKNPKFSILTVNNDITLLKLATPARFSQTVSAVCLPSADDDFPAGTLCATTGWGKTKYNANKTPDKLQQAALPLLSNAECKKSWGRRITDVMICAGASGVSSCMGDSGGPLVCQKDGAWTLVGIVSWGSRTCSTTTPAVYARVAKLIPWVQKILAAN
Chain of Chymotrypsin (Q99895 whole entry, looked up): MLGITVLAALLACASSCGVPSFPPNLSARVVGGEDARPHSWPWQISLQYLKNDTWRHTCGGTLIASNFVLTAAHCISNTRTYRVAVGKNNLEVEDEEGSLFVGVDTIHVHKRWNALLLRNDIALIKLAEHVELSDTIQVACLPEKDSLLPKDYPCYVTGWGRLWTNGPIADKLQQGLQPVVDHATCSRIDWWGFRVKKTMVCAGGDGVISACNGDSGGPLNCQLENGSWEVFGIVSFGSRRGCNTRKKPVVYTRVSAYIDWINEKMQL

inhibition [1] | inhibition [2] | inhibition [3] | inhibition [4] | inhibition [5] | Compound
inactive | inactive | inactive | inactive |  | CC(=O)N[C@H]1Cc2ccc([N+](=O)[O-])c(c2)Oc2ccc3c(c2)C(C[C@@H](C(=O)N[C@@H](CC(C)C)C(N)=O)NC(=O)[C@H](CC(C)C)NC1=O)C(=O)N3 (some centres undefined)
inactive | inactive | inactive | inactive | inactive | CC(=O)N[C@H]1Cc2ccc([N+](=O)[O-])c(c2)Oc2ccc(cc2)C[C@@H](C(=O)N[C@@H](CC(C)C)C(=O)[C@@]2(C)CO2)NC(=O)[C@H](CC(C)C)NC1=O
 | inactive | inactive | inactive | inactive | CC(C)C[C@H](NC(=O)[C@H](CCc1ccccc1)NC(=O)CN1CCOCC1)C(=O)N[C@@H](Cc1ccccc1)C(=O)N[C@@H](CC(C)C)C(=O)[C@@]1(C)CO1
 |  | inactive |  | inactive | CC(C)C[C@@H](C=O)NC(=O)[C@@H]1Cc2ccc(cc2)Oc2cc(ccc2[N+](=O)[O-])C[C@H](NC(=O)OCc2ccccc2)C(=O)N[C@@H](CC(C)C)C(=O)N1
inactive | inactive | inactive | inactive | inactive | CC(=O)N[C@H]1Cc2ccc([N+](=O)[O-])c(c2)Oc2ccc(cc2)CC[C@@H](C(=O)N[C@@H](CC(C)C)C(=O)[C@@]2(C)CO2)NC(=O)[C@H](CC(C)C)NC1=O
 | inactive | inactive | inactive | inactive | CC(=O)N[C@H]1Cc2ccc([N+](=O)[O-])c(c2)Oc2ccc3c(c2)C(C[C@@H](C(=O)N[C@@H](CC(C)C)C(=O)[C@@]2(C)CO2)NC(=O)[C@H](CC(C)C)NC1=O)C(=O)N3 (some centres undefined)

Compound | inhibition [1] | inhibition [2] | inhibition [3] | inhibition [4] | inhibition [5]
CC(=O)N[C@@H](Cc1ccc([N+](=O)[O-])c(F)c1)C(=O)N[C@@H](CC(C)C)C(=O)N[C@@H](CC1C(=O)Nc2ccc(O)cc21)C(=O)N[C@@H](CC(C)C)C(=O)[C@@]1(C)CO1 (some centres undefined) | inactive | inactive | inactive | inactive | inactive
